Read-outs that look alike come from different tables or passages of the source.
How the values were obtained:
[1] = Absorption characteristics of photosensitizers with peak absorptions in visible light (Lambda Max, Epsilon); type: physicochemical; conditions: determined in water
From the text: Examples of photosensitizers having peak absorptions in visible light and their absorption characteristics is: […]

[2] = cited from earlier work; for Epsilon: ideal solvent
[3] = ideal solvent; cited from earlier work
[4] = cited from earlier work

**Q.** For `C=Cc1c(C)c2cc3nc(c(CC(=O)O)c4[nH]c(cc5nc(cc1[nH]2)C(C)=C5CC)c(C)c4C(=O)O)[C@@H](CCC(=O)O)[C@@H]3C` [Chlorin e6, chlorin e6], which Epsilon ([1]; first or only peak) is on record?
**A.** 150,000

**Q.** And the Epsilon ([1]; second peak (after the slash))?
**A.** 30,000

**Q.** And the “Lambda Max” value ([2]; first or only peak)?
**A.** 400

**Q.** What about the “Lambda Max” value ([2]; second peak (after the slash)) of the same compound?
**A.** 650

**Q.** What about the “Singlet Oxygen QY” value [3] of the same compound?
**A.** 0.65

**Q.** What does the source list for `O=C([O-])c1ccccc1-c1c2cc(Br)c(=O)c(Br)c-2oc2c(Br)c([O-])c(Br)cc12.[Na+].[Na+]` [Eosin Y]?
**A.** Lambda Max ([2]; first or only peak): 525; Epsilon ([2]; first or only peak): 112,000

**Q.** What does the source list for `CN(C)c1ccc2nc3ccc(=[N+](C)C)cc-3sc2c1` [Methylene Blue, methylene blue (CAS #61-73-4)]?
**A.** Epsilon ([1]; first or only peak): 48,000; Lambda Max ([2]; first or only peak): 665; Singlet Oxygen QY [3]: 0.52

**Q.** Which results are given for `O.O=C([O-])c1ccccc1-c1c2cc(I)c(=O)c(I)c-2oc2c(I)c([O-])c(I)cc12.[Na+].[Na+]` [Erythrosin B]?
**A.** Lambda Max ([2]; first or only peak): 530; Epsilon ([2]; first or only peak): 82,000; Singlet Oxygen QY [3]: 0.63

**Q.** What does the source list for Verteporfin?
**A.** Lambda Max ([2]; first or only peak): 435; Epsilon ([2]; first or only peak): ~70,000

**Q.** What does the source list for `O=C([O-])c1c(Cl)c(Cl)c(Cl)c(Cl)c1-c1c2cc(I)c(=O)c(I)c-2oc2c(I)c([O-])c(I)cc12.[Na+].[Na+]` [Rose Bengal, Rose Bengal (CAS #632-69-9)]?
**A.** Lambda Max ([2]; first or only peak): 562; Epsilon ([2]; first or only peak): 90,000; Singlet Oxygen QY [3]: 0.76

**Q.** For IRDye 700DX HHS Ester [IR700], which water solubility [4] is on record?
**A.** good solubility

**Q.** Which “Lambda Max” value ([2]; first or only peak) does the source give for `C=Cc1c(C)c2cc3nc(c(CC(=O)N[C@@H](CC(=O)O)C(=O)O)c4[nH]c(cc5nc(cc1[nH]2)C(C)=C5CC)c(C)c4C(=O)O)[C@@H](CCC(=O)O)[C@@H]3C` [Talaporfin (LS11, MACE, NPs6), Talaporfin] here?
**A.** 400

**Q.** What about the Epsilon ([2]; first or only peak) of the same compound?
**A.** 180,000

**Q.** And the Epsilon ([2]; second peak (after the slash))?
**A.** 40,000

**Q.** What about the “Lambda Max” value ([2]; second peak (after the slash)) of the same compound?
**A.** 654

**Q.** What about the “Singlet Oxygen QY” value [3] of the same compound?
**A.** 0.77

**Q.** For `CCNc1cc2[s+]c3cc(NCC)c(C)cc3nc2cc1C.[Cl-]` [New MB], which Epsilon ([1]; first or only peak) is on record?
**A.** 64,000

**Q.** And the “Lambda Max” value ([2]; first or only peak)?
**A.** 630
